Results as given in paper PMC8799717, “Pharmacological targeting PIKfyve and tubulin as an effective treatment strategy for double-hit lymphoma” (Cell Death Discovery, 2022).

Legend:
WEE2 = WEE2 (Homo sapiens, UniProt P0C1S8); test: biochemical; parameters: KINOMEscan active-site-directed competition binding panel, 468 kinases, percent of DMSO control at 1 uM; conditions: KINOMEscan binding, percent of DMSO control; read-out: Ctrl%
AKT3 = AKT3 (Homo sapiens, UniProt Q9Y243); test: biochemical; parameters: KINOMEscan active-site-directed competition binding panel, 468 kinases, percent of DMSO control at 1 uM; conditions: KINOMEscan binding, percent of DMSO control; read-out: Ctrl%
RET = RET (Homo sapiens, UniProt P07949); test: biochemical; parameters: KINOMEscan active-site-directed competition binding panel, 468 kinases, percent of DMSO control at 1 uM; conditions: KINOMEscan binding, percent of DMSO control; read-out: Ctrl%
RET, sequence (P07949 whole entry): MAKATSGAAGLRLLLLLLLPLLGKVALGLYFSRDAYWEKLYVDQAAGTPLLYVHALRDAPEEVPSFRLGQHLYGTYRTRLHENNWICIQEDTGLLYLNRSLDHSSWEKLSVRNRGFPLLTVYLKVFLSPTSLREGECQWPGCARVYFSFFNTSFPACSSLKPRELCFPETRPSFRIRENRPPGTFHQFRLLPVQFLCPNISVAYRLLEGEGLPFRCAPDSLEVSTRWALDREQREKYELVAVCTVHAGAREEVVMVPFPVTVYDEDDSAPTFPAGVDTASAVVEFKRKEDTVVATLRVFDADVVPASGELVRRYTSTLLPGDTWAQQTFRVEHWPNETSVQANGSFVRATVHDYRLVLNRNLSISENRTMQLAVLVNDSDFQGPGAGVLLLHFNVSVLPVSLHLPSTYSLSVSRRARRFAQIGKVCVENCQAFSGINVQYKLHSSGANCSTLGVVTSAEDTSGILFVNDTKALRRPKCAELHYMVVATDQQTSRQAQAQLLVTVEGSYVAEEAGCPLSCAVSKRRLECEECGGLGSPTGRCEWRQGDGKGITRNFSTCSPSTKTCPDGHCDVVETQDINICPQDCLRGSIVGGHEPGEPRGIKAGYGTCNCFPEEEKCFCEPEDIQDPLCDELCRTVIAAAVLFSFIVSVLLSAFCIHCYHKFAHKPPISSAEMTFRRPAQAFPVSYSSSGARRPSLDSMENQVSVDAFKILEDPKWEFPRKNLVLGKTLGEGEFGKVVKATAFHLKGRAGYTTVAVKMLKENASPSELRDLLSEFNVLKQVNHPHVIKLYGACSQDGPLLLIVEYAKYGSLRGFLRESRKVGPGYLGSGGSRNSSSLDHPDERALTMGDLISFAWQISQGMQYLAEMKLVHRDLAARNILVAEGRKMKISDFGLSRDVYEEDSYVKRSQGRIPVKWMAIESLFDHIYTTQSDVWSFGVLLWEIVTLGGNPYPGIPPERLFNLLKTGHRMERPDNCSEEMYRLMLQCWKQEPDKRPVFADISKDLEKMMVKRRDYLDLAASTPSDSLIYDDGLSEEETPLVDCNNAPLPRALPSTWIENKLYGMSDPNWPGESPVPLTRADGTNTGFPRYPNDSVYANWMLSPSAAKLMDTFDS

MINK = target: T1, MINK (Homo sapiens, UniProt Q8N4C8); test: biochemical; parameters: KINOMEscan active-site-directed competition binding panel, 468 kinases, percent of DMSO control at 1 uM; conditions: KINOMEscan binding, percent of DMSO control; read-out: Ctrl%
T1 construct: gene MINK1

FLT4 = FLT4 (Homo sapiens, UniProt P35916); test: biochemical; parameters: KINOMEscan active-site-directed competition binding panel, 468 kinases, percent of DMSO control at 1 uM; conditions: KINOMEscan binding, percent of DMSO control; read-out: Ctrl%
EPHB3 = EPHB3 (Homo sapiens, UniProt P54753); test: biochemical; parameters: KINOMEscan active-site-directed competition binding panel, 468 kinases, percent of DMSO control at 1 uM; conditions: KINOMEscan binding, percent of DMSO control; read-out: Ctrl%
PRP4 = target: T2, PRP4 (Homo sapiens, UniProt Q13523); test: biochemical; parameters: KINOMEscan active-site-directed competition binding panel, 468 kinases, percent of DMSO control at 1 uM; conditions: KINOMEscan binding, percent of DMSO control; read-out: Ctrl%
T2 construct: gene PRPF4B
T2 sequence (Q13523 whole entry): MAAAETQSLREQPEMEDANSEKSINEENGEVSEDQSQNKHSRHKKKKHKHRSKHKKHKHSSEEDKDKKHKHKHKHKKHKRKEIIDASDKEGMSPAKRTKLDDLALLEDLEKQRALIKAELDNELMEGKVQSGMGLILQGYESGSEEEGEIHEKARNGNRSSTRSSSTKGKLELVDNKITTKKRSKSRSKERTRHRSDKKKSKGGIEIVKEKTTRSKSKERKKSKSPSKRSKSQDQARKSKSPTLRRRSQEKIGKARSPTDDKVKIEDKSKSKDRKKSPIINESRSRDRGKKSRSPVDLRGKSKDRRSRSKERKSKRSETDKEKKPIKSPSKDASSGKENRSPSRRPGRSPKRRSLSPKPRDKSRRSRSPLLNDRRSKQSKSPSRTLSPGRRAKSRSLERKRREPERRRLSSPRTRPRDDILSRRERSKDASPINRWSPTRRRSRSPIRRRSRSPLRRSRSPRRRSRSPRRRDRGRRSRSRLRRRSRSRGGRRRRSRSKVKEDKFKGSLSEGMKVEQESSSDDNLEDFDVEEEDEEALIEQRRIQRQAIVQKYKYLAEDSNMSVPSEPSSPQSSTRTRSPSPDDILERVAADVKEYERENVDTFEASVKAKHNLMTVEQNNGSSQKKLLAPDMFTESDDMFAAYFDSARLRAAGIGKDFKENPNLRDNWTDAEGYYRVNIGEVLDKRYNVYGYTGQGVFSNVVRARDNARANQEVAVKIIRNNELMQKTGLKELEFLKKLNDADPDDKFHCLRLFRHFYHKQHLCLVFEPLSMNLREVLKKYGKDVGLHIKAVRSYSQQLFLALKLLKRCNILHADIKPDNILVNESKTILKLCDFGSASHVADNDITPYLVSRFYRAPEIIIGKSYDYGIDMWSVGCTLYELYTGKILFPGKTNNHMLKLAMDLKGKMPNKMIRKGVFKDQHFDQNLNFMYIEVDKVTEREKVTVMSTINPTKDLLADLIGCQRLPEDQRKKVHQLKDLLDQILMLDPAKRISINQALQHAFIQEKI

p38-gamma = target: T3, p38-gamma (Homo sapiens, UniProt P53778); test: biochemical; parameters: KINOMEscan active-site-directed competition binding panel, 468 kinases, percent of DMSO control at 1 uM; conditions: KINOMEscan binding, percent of DMSO control; read-out: Ctrl%
T3 construct: gene MAPK12
T3 sequence (P53778 whole entry): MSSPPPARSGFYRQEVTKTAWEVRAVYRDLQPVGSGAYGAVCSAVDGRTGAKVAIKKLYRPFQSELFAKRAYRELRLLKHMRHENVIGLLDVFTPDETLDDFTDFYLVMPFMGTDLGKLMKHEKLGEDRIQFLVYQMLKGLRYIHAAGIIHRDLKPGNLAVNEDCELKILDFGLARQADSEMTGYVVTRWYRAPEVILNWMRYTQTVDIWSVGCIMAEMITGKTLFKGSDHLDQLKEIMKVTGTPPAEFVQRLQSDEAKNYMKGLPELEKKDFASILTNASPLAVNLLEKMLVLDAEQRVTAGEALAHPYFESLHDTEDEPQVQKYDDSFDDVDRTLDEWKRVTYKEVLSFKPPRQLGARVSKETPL

IRAK4 = IRAK4 (Homo sapiens, UniProt Q9NWZ3); test: biochemical; parameters: KINOMEscan active-site-directed competition binding panel, 468 kinases, percent of DMSO control at 1 uM; conditions: KINOMEscan binding, percent of DMSO control; read-out: Ctrl%
TRKB = target: T4, TRKB (Homo sapiens, UniProt Q16620); test: biochemical; parameters: KINOMEscan active-site-directed competition binding panel, 468 kinases, percent of DMSO control at 1 uM; conditions: KINOMEscan binding, percent of DMSO control; read-out: Ctrl%
T4 construct: gene NTRK2

AURKC = AURKC (Homo sapiens, UniProt Q9UQB9); test: biochemical; parameters: KINOMEscan active-site-directed competition binding panel, 468 kinases, percent of DMSO control at 1 uM; conditions: KINOMEscan binding, percent of DMSO control; read-out: Ctrl%
KIT-autoinhibited = KIT-autoinhibited (Homo sapiens, UniProt P10721); test: biochemical; parameters: KINOMEscan active-site-directed competition binding panel, 468 kinases, percent of DMSO control at 1 uM; conditions: KINOMEscan binding, percent of DMSO control; read-out: Ctrl%
NEK3 = NEK3 (Homo sapiens, UniProt P51956); test: biochemical; parameters: KINOMEscan active-site-directed competition binding panel, 468 kinases, percent of DMSO control at 1 uM; conditions: KINOMEscan binding, percent of DMSO control; read-out: Ctrl%
NEK3, sequence (P51956 whole entry): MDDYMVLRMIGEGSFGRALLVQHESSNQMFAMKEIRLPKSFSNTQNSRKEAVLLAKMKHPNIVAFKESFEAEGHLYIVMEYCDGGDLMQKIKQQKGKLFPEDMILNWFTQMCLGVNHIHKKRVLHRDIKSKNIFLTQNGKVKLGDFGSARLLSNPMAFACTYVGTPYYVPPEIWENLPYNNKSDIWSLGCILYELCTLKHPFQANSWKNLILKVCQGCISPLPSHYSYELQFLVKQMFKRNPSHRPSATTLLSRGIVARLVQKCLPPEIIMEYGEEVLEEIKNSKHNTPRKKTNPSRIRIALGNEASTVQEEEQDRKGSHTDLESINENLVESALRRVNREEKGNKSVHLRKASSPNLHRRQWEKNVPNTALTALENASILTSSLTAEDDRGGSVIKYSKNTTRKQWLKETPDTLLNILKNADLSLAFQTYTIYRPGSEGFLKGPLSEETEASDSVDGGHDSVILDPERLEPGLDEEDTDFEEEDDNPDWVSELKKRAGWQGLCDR

FLT3-autoinhibited = FLT3-autoinhibited (Homo sapiens, UniProt P36888); test: biochemical; parameters: KINOMEscan active-site-directed competition binding panel, 468 kinases, percent of DMSO control at 1 uM; conditions: KINOMEscan binding, percent of DMSO control; read-out: Ctrl%
HPK1 = target: T5, HPK1 (Homo sapiens, UniProt Q92918); test: biochemical; parameters: KINOMEscan active-site-directed competition binding panel, 468 kinases, percent of DMSO control at 1 uM; conditions: KINOMEscan binding, percent of DMSO control; read-out: Ctrl%
T5 construct: gene MAP4K1

CDKL3 = CDKL3 (Homo sapiens, UniProt Q8IVW4); test: biochemical; parameters: KINOMEscan active-site-directed competition binding panel, 468 kinases, percent of DMSO control at 1 uM; conditions: KINOMEscan binding, percent of DMSO control; read-out: Ctrl%
INSRR = INSRR (Homo sapiens, UniProt P14616); test: biochemical; parameters: KINOMEscan active-site-directed competition binding panel, 468 kinases, percent of DMSO control at 1 uM; conditions: KINOMEscan binding, percent of DMSO control; read-out: Ctrl%
INSRR, sequence (P14616 whole entry): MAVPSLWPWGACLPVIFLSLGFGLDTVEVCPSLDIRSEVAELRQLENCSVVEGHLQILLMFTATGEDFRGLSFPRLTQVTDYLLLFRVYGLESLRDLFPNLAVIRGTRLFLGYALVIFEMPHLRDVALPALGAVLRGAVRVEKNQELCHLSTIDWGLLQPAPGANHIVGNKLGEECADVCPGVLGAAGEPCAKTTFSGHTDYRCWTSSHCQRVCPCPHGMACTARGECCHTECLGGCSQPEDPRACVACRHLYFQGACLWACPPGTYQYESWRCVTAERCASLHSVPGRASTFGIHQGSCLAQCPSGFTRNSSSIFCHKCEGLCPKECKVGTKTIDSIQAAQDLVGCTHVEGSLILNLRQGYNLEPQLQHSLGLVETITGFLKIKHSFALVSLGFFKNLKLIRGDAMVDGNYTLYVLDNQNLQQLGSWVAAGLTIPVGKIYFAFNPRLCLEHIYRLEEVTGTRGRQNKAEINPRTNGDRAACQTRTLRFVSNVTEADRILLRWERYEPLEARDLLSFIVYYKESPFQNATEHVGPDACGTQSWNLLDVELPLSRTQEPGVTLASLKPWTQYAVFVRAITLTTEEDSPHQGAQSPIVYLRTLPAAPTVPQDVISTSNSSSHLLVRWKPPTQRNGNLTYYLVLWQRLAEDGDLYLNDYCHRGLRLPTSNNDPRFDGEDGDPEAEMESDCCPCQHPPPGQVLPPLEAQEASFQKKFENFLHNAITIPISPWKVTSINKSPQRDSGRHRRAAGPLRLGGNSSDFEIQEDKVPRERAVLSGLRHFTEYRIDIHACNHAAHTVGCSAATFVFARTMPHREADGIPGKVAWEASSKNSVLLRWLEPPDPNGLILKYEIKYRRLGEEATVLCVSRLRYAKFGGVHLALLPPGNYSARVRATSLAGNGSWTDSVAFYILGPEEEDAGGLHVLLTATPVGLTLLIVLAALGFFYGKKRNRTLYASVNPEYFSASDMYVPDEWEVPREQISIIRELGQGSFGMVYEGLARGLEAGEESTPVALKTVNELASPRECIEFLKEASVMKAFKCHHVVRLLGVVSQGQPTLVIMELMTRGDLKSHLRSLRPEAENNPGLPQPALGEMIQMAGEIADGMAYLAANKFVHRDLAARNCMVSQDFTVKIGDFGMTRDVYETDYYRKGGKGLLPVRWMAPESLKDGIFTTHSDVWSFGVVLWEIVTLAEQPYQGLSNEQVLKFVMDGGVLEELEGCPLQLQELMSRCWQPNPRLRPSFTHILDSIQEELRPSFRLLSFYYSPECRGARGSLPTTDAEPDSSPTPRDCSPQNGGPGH

EGFR(G719S) = EGFR(G719S) (Homo sapiens, UniProt P00533, G719S); test: biochemical; parameters: KINOMEscan active-site-directed competition binding panel, 468 kinases, percent of DMSO control at 1 uM; conditions: KINOMEscan binding, percent of DMSO control; read-out: Ctrl%
p38-delta = target: T6, p38-delta (Homo sapiens, UniProt O15264); test: biochemical; parameters: KINOMEscan active-site-directed competition binding panel, 468 kinases, percent of DMSO control at 1 uM; conditions: KINOMEscan binding, percent of DMSO control; read-out: Ctrl%
T6 construct: gene MAPK13

BRSK2 = BRSK2 (Homo sapiens, UniProt Q8IWQ3); test: biochemical; parameters: KINOMEscan active-site-directed competition binding panel, 468 kinases, percent of DMSO control at 1 uM; conditions: KINOMEscan binding, percent of DMSO control; read-out: Ctrl%
IRAK1 = IRAK1 (Homo sapiens, UniProt P51617); test: biochemical; parameters: KINOMEscan active-site-directed competition binding panel, 468 kinases, percent of DMSO control at 1 uM; conditions: KINOMEscan binding, percent of DMSO control; read-out: Ctrl%
IRAK1, sequence (P51617 whole entry): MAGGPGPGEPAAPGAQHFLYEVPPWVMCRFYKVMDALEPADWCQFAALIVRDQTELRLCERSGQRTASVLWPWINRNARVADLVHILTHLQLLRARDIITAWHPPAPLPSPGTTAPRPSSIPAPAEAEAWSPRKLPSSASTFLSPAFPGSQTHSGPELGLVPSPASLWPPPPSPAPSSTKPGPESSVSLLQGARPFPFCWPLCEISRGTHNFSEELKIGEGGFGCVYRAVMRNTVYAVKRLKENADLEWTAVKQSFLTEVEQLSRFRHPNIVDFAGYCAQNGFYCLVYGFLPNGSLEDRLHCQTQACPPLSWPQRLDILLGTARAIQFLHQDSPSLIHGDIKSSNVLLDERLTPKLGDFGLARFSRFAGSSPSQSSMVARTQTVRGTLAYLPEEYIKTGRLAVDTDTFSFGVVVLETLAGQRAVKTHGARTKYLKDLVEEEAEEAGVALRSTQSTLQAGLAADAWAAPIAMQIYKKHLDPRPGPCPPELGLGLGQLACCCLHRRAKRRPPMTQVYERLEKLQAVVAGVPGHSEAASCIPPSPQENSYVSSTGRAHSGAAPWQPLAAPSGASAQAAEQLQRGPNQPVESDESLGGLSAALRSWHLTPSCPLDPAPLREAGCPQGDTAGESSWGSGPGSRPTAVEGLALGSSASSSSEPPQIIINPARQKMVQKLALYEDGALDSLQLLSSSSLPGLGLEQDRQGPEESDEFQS

[1] = target: T7, JAK1(JH2domain-pseudokinase) (Homo sapiens, UniProt P23458); test: biochemical; parameters: KINOMEscan active-site-directed competition binding panel, 468 kinases, percent of DMSO control at 1 uM; conditions: KINOMEscan binding, percent of DMSO control; read-out: Ctrl%
T7 construct: JH2domain-pseudokinase

BMPR2 = BMPR2 (Homo sapiens, UniProt Q13873); test: biochemical; parameters: KINOMEscan active-site-directed competition binding panel, 468 kinases, percent of DMSO control at 1 uM; conditions: KINOMEscan binding, percent of DMSO control; read-out: Ctrl%
KIT = KIT (Homo sapiens, UniProt P10721); test: KINOMEscan competition binding, single dose […]; conditions: read-out: % of control at 1 μM
DDR2 = DDR2 (Homo sapiens, UniProt Q16832); test: KINOMEscan competition binding, single dose […]; conditions: read-out: % of control at 1 μM

Cc1ccc(NC(=O)c2cccc(C(F)(F)F)c2)cc1Nc1cc(-c2cccnc2)nc2[nH]ccc12 [HZX-02-059]
remaining binding at 1 µM (WEE2): 100% | remaining binding at 1 µM (AKT3): 69% | remaining binding at 1 µM (RET): 90% | remaining binding at 1 µM (MINK): 91% | remaining binding at 1 µM (FLT4): 94% | remaining binding at 1 µM (EPHB3): 48% | remaining binding at 1 µM (PRP4): 69% | remaining binding at 1 µM (p38-gamma): 92% | remaining binding at 1 µM (IRAK4): 100% | remaining binding at 1 µM (TRKB): 100% | remaining binding at 1 µM (AURKC): 75% | remaining binding at 1 µM (KIT-autoinhibited): 88% | remaining binding at 1 µM (NEK3): 54% | remaining binding at 1 µM (FLT3-autoinhibited): 98% | remaining binding at 1 µM (HPK1): 72% | remaining binding at 1 µM (CDKL3): 84% | remaining binding at 1 µM (INSRR): 100% | remaining binding at 1 µM (EGFR(G719S)): 97% | remaining binding at 1 µM (p38-delta): 87% | remaining binding at 1 µM (BRSK2): 99% | remaining binding at 1 µM (IRAK1): 100% | remaining binding at 1 µM [1]: 64% | remaining binding at 1 µM (BMPR2): 100% | remaining binding at 1 µM (KIT): 1.2% | remaining binding at 1 µM (DDR2): 0%
